Our source for the EC50 and IC50 values is patent US12473282B2, “Biphenyl fluorine double bond derivative, preparation method therefor, and pharmaceutical application thereof” (Abbisko Therapeutics Co., Ltd., priority 2020, dated 2025).

The nature of test [1]: Jurkat reporter gene cellular assay. The format is cell-based. The conditions noted are these: Homo sapiens; Jurkat/NF-κB-luc/PD1 + Raji-PD-L1 coculture, OKT3 1 μg/mL, 6 hrs, activation fold; read-out: Cell Activity EC50. Put shortly: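 Jurkat cells stably expressing human PD-1 and NF-κB-luciferase co-cultured with PD-L1-expressing Raji cells (5×10^4 each/well) under OKT3 (1 μg/mL final) with compound. Raji cells preincubated 20 min; luminescence read 6 h after Jurkat addition. EC50 from non-linear regression of fold activation over DMSO.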
Background: In a reporter assay the amount or activity of a reporter protein is the signal.

For test [2], the target named is interaction between PD-1 and PD-L1 (Homo sapiens (Human), UniProt Q9NZQ7). Kind of test: PD1-PDL1 HTRF binding activity test (Cisbio PD-1/PD-L1 binding assay kit). The protocol:
I. PD1-PDL1 HTRF Binding Activity Test
The effect of compounds of the examples of the present invention on the interaction between PD-1 and PD-L1 was determined by the PD-1/PD-L1 binding assay kit from Cisbio (#64ICP01PEG or 64ICP01PEH). The detailed experimental process was as follows: • 1. Pre-diluted compound solution, 4 μL of Tag1-PD-L1 and 4 μL of Tag2-PD1 were added to each well of a 384-well plate; • 2. After the mixture was incubated at room temperature for 15 min, 5 μL of anti-Tag1-Eu3+ antibody and 5 μL of anti-Tag2-XL665 antibody were then added; • 3. After incubated for 2 hrs at room temperature or overnight at 4° C., plates were read on Envision of Pelkin Elmer; and readings at 665 nm and 620 nm were recorded, and the ratio of the two readings was taken as a reading for each well; • 4. The reading of each well after compound treatment was compared with the reading of DMSO treated wells to obtain the percent inhibition of the compound; • 5. IC50 values of compounds and positive compounds of the examples of the present invention were determined by non-linear regression analysis of percent inhibition at different compound concentrations. II. Jurkat Reporter Gene Cellular Assay

Sequence of interaction between PD-1 and PD-L1 (Q9NZQ7 19-238): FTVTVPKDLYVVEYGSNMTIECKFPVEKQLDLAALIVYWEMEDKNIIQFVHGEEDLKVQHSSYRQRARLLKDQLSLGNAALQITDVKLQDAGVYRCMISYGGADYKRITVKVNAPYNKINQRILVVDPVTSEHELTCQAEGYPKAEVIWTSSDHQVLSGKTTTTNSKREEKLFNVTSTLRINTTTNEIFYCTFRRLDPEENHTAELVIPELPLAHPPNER

For orientation: EC50 means the concentration that produces a half-maximal response. The IC50 is the concentration that inhibits the measured activity by half. A high value points to a need for much substance. For `COc1cc(/C(F)=C/c2cccc(-c3cccc(NC(=O)c4nc5c(n4C)CCN(C[C@H]4CC[C@H](C(=O)O)CC4)C5)c3C)c2C)ncc1CNC[C@@H]1CCC(=O)N1` [Example 17, (1R,4R)-4-((2-((3′-((Z)-2-fluoro-2-(4-methoxy-5-(((((S)-5-oxopyrrolidin-2-yl)methyl)amino)methyl)pyridin-2-yl)vinyl)-2,2′-dimethyl-[1,1′-biphenyl]-3-yl)carbamoyl)-1-methyl-1,4,6,7-tetrahydro-5H-imidazo[4,5-c]pyridin-5-yl)methyl)cyclohexane-1-carboxylic acid], the 50% effective concentration (EC50) in test [1] was found to be 464 nM. The same compound registered an IC50 in test [2] of 0.331 nM.

For the compound `COc1cc(/C(F)=C/c2cccc(-c3cccc(NC(=O)c4nc5c(n4C)CCN(CCC46CCC(C(=O)O)(CC4)C6)C5)c3Cl)c2Cl)ncc1CN1CC(C)(O)C1` [Example 33, (Z)-4-(2-(2-((2,2′-dichloro-3′-(2-fluoro-2-(5-((3-hydroxy-3-methylazetidin-1-yl)methyl)-4-methoxypyridin-2-yl)vinyl)-[1,1′-biphenyl]-3-yl)carbamoyl)-1-methyl-1,4,6,7-tetrahydro-5H-imidazo[4,5-c]pyridin-5-yl)ethyl)bicyclo[2.2.1]heptane-1-carboxylic acid], the EC50 in test [1] stood at 85.8 nM. In test [2], this compound registered an IC50 of 0.489 nM.

`COc1cc(/C(F)=C/c2cccc(-c3cccc(NC(=O)c4nc5c(n4C)CCN(CCC46CCC(C(=O)O)(CC4)C6)C5)c3Cl)c2Cl)ncc1CNC[C@@H]1CCC(=O)N1` [Example 34, (S,Z)-4-(2-(2-((2,2′-dichloro-3′-(2-fluoro-2-(4-methoxy-5-((((5-oxopyrrolidin-2-yl)methyl)amino)methyl)pyridin-2-yl)vinyl)-[1,1′-biphenyl]-3-yl)carbamoyl)-1-methyl-1,4,6,7-tetrahydro-5H-imidazo [4,5-c]pyridin-5-yl)ethyl)bicyclo[2.2.1]heptane-1-carboxylic acid]: in test [1], the concentration giving a half-maximal response (EC50) was 80.4 nM. This compound also yielded an IC50 in test [2] of 0.352 nM.

As for `COc1cc(/C(F)=C/c2cccc(-c3cccc(NC(=O)c4nc5c(n4C)CCN(CCC46CCC(C(=O)O)(CC4)C6)C5)c3Cl)c2Cl)ncc1CN[C@@H]1CCOC[C@H]1O` [Example 35, 4-(2-(2-((2,2′-dichloro-3′-((Z)-2-fluoro-2-(5-((((3S,4R)-3-hydroxytetrahydro-2H-pyran-4-yl)amino)methyl)-4-methoxypyridin-2-yl)vinyl)-[1,1′-biphenyl]-3-yl)carbamoyl)-1-methyl-1,4,6,7-tetrahydro-5H-imidazo[4,5-c]pyridin-5-yl)ethyl)bicyclo[2.2.1]heptane-1-carboxylic acid], in test [1], the EC50 was determined as 93.1 nM. The compound also came in with a concentration for half-maximal inhibition (IC50) in test [2] of 0.638 nM.

Take `Cn1c(C(=O)Nc2cccc(-c3cccc(/C=C(\F)c4cc(C5CC5)c(CN5CC(C)(O)C5)cn4)c3Cl)c2Cl)nc2c1CCN(CCC13CCC(C(=O)O)(CC1)C3)C2` [Example 36, (Z)-4-(2-(2-((2,2′-dichloro-3′-(2-(4-cyclopropyl-5-((3-hydroxy-3-methylazetidin-1-yl)methyl)pyridin-2-yl)-2-fluorovinyl)-[1,1′-biphenyl]-3-yl)carbamoyl)-1-methyl-1,4,6,7-tetrahydro-5H-imidazo[4,5-c]pyridin-5-yl)ethyl)bicyclo[2.2.1]heptane-1-carboxylic acid]: the EC50 in test [1] was found to be 3130 nM. In test [2], this compound had an IC50 of 0.306 nM.

Consider `COc1cc(/C(F)=C/c2cccc(-c3cccc(NC(=O)c4nc5c(n4C)CCN(CCC46CCC(C(=O)O)(CC4)C6)C5)c3Cl)c2Cl)ncc1CN[C@H](CO)C(=O)O` [Example 37, (R,Z)-4-(2-(2-((3′-(2-(5-(((1-carboxy-2-hydroxyethyl)amino)methyl)-4-methoxypyridin-2-yl)-2-fluorovinyl)-2,2′-dichloro-[1,1′-biphenyl]-3-yl)carbamoyl)-1-methyl-1,4,6,7-tetrahydro-5H-imidazo[4,5-c]pyridin-5-yl)ethyl)bicyclo[2.2.1]heptane-1-carboxylic acid], for which the EC50 in test [1] was determined as 178 nM. In test [2], this compound had an IC50 of 0.202 nM.

With `COc1cc(/C(F)=C/c2cccc(-c3cccc(NC(=O)c4nc5c(n4C)CCN(CCC46CCC(C(=O)O)(CC4)C6)C5)c3Cl)c2Cl)ncc1CNCC(F)F` [Example 38, (Z)-4-(2-(2-((2,2′-dichloro-3′-(2-(5-(((2,2-difluoroethyl)amino)methyl)-4-methoxypyridin-2-yl)-2-fluorovinyl)-[1,1′-biphenyl]-3-yl)carbamoyl)-1-methyl-1,4,6,7-tetrahydro-5H-imidazo[4,5-c]pyridin-5-yl)ethyl)bicyclo[2.2.1]heptane-1-carboxylic acid], the EC50 in test [1] turned out to be 977 nM. The same compound showed an IC50 in test [2] of 0.332 nM.

With `COc1cc(/C(F)=C/c2cccc(-c3cccc(NC(=O)c4nc5c(n4C)CCN(CCC46CCC(C(=O)O)(CC4)C6)C5)c3Cl)c2Cl)ncc1CN1CC[C@@H](O)C1` [Example 39, (R,Z)-4-(2-(2-((2,2′-dichloro-3′-(2-fluoro-2-(5-((3-hydroxypyrrolidin-1-yl)methyl)-4-methoxypyridin-2-yl)vinyl)-[1,1′-biphenyl]-3-yl)carbamoyl)-1-methyl-1,4,6,7-tetrahydro-5H-imidazo[4,5-c]pyridin-5-yl)ethyl)bicyclo[2.2.1]heptane-1-carboxylic acid], in test [1], the EC50 stood at 64.7 nM. The compound also registered a 50% inhibitory concentration (IC50) in test [2] of 0.238 nM.

For the compound `COc1cc(/C(F)=C/c2cccc(-c3cccc(NC(=O)c4nc5c(n4C)CCN(CCC46CCC(C(=O)O)(CC4)C6)C5)c3Cl)c2Cl)ncc1CN[C@H]1CC[C@@H](O)CC1` [Example 40, 4-(2-(2-((2,2′-dichloro-3′-((Z)-2-fluoro-2-(5-((((1S,4S)-4-hydroxycyclohexyl)amino)methyl)-4-methoxypyridin-2-yl)vinyl)-[1,1′-biphenyl]-3-yl)carbamoyl)-1-methyl-1,4,6,7-tetrahydro-5H-imidazo[4,5-c]pyridin-5-yl)ethyl)bicyclo[2.2.1]heptane-1-carboxylic acid], the EC50 in test [1] came out at 179 nM. Moreover, the 50% inhibitory concentration (IC50) in test [2] came to 0.31 nM.

In the case of `COc1cc(/C(F)=C/c2cccc(-c3cccc(NC(=O)c4nc5c(n4C)CCN(CCC46CCC(C(=O)O)(CC4)C6)C5)c3Cl)c2Cl)ncc1CNC(C)C` [Example 41, (Z)-4-(2-(2-((2,2′-dichloro-3′-(2-fluoro-2-(5-((isopropylamino)methyl)-4-methoxypyridin-2-yl)vinyl)-[1,1′-biphenyl]-3-yl)carbamoyl)-l-methyl-1,4,6,7-tetrahydro-5H-imidazo[4,5-c]pyridin-5-yl)ethyl) bicyclo[2.2.1]heptane-1-carboxylic acid], the concentration giving a half-maximal response (EC50) in test [1] came out at 86.7 nM. In addition, the IC50 in test [2] was 0.249 nM.

Regarding `COc1cc(/C(F)=C/c2cccc(-c3cccc(NC(=O)c4nc5c(n4C)CCN(CCC46CCC(C(=O)O)(CC4)C6)C5)c3Cl)c2Cl)ncc1CNC(C)(C)C` [Example 50, (Z)-4-(2-(2-((3′-(2-(5-((tert-butylamino)methyl)-4-methoxypyridin-2-yl)-2-fluorovinyl)-2,2′-dichloro-[1,1′-biphenyl]-3-yl)carbamoyl)-1-methyl-1,4,6,7-tetrahydro-5H-imidazo[4,5-c]pyridin-5-yl)ethyl) bicyclo[2.2.1]heptane-1-carboxylic acid], in test [1], the EC50 came out at 54 nM. In addition, the IC50 in test [2] amounted to 0.731 nM.

As to `COc1cc(/C(F)=C/c2cccc(-c3cccc(NC(=O)c4nc5c(n4C)CCN(CCC46CCC(C(=O)O)(CC4)C6)C5)c3Cl)c2Cl)ncc1CN1CC[C@H](O)C1` [Example 59, (S,Z)-4-(2-(2-((2,2′-dichloro-3′-(2-fluoro-2-(5-((3-hydroxypyrrolidin-1-yl)methyl)-4-methoxypyridin-2-yl)vinyl)-[1,1′-biphenyl]-3-yl)carbamoyl)-1-methyl-1,4,6,7-tetrahydro-5H-imidazo[4,5-c]pyridin-5-yl)ethyl)bicyclo[2.2.1]heptane-1-carboxylic acid], the EC50 in test [1] was 47.5 nM. Also, the half-maximal inhibitory concentration (IC50) in test [2] came to 0.299 nM.
